The target in experiment [1] is T1, Nluc enzyme in REALTIME-GLO™ MT Cell Viability reagent (Oplophorus gracilirostris, UniProt Q9GV45, A31E/A60N/A81I/F95D/I117V/K70R/L54V/L99Q/M102K/N193R/P142E/Q151K/Q38R/Q45L/V71I/Y165I).
T1 construct: purchased Promega Corporation
The experiment in a line: RealTime-Glo / Caspase-Glo multiplex in K562 cells. The class given is cell-based. To be noted: Trail titration, 200 μM in CASPASE-GLO 3/7 reagent, 2 hrs RT. The procedure: K562 were plated into wells of a Corning 3707 assay plate in 20 μL RPMI media at 2000 cells/well and incubated overnight. A Trail titration was prepared in 10 μL RPMI media and added to cells. Then either 10 μL 4× REALTIME-GLO™ MT Cell Viability reagent (RTCV; Promega Corporation) or media (control) was added to each well. The reactions were incubated at 37° C./5% CO2 at various time points, and luminescence was measured on a Tecan M1000 Pro plate reader. At 5 hrs, 40 μL CASPASE-GLO® 3/7 detection reagent (Promega Corporation) was added with or without 200 μM JRW-0004. The reaction was incubated for 2 hrs at room temperature (RT), and luminescence was measured on the Tecan M1000 Pro plate reader.

The subject of the next experiment is Nluc enzyme. Put plainly: Multiplex RealTime-Glo / Caspase-Glo 3/7 in MCF7 cells. The class given is cell-based. How it is done:
(§1) A) In a Corning 3570 assay plate, MCF7 cells were plated at 1,000 cells/well in 20 μL of cell culture media (EMEM supplemented with 0.01 mg/mL human recombinant insulin and 10% fetal bovine serum) and incubated in overnight. 10 μL of 4× REALTIME-GLO™ MT Cell Viability reagents (Promega Corporation) in media or 10 μL media only was added to the cells. 10 μL of 40 μM staurosporine in media or 10 μL media only (control) was added to the cells. The cells were incubated, and caspase activation monitored at 5.5 hrs post-reagent addition. To monitor caspase activation, 40 μL CASPASE-GLO® 3/7 Assay Reagent (Promega Corporation), either on its own (Caspase) or with 200 μM of JRW-0004, JRW-0013, or JRW-0042, was added. Reactions were incubated at RT, and luminescence was measured at 1 hr 10 min post-reagent addition on Tecan M1000 Pro plate reader.
(§2) When comparing the signal generated from the CASPASE-GLO® reagent in media only versus the signal generated in media containing REALTIME-GLO™ reagent, the signal is higher in the multiplex reaction.

In another experiment the target is Nluc luciferase (Oplophorus gracilirostris, UniProt Q9GV45, A31E/A60N/A81I/F95D/I117V/K70R/L54V/L99Q/M102K/N193R/P142E/Q151K/Q38R/Q45L/V71I/Y165I). The experiment in a line: Inhibition of purified Nluc, dose and time dependence. It counts as biochemical. The conditions noted are these: pro-substrate PBI-4442, DTT, TERGITOL, RT, various time points. The procedure:
A solution of purified Nluc and an Nluc pro-substrate (PBI-4442, which is described in US 2013/0130289), which is converted to an Nluc substrate upon reduction with DTT, were prepared in PBS buffer, pH 7.5. A 40 mM solution of DTT in PBS, pH 7.5 containing 1% TERGITOL was also prepared. Titrations of the thienopyrrole compounds JRW-0004, WZ141-88, WZ141-86, WZ141-74, WZ141-84, WZ141-89, WZ141-90, and WZ141-91 in the buffer containing DTT and TERGITOL were then prepared. An equal volume of the Nluc/pro-substrate solution was added to the thienopyrrole compound titrations in wells of an assay plate. The reactions were incubated at RT, and luminescence was measured at various time points on the Tecan M100 Pro plate reader (integration time 200 ms). IC50 values were determined using GraphPad Prism 6.03.

Experiment [2] concerns firefly luciferase, e.g., ULTRAGLO® luciferase. Put plainly: Specificity of inhibition: firefly luciferase activity. It counts as biochemical. The conditions noted are these: 1 μM luciferin in Luciferase Detection Reagent; RT 2 hrs. How it is done: The following example describes the specificity of disclosed thienopyrrole compounds, JRW-0004, JRW-0013, JRW-0006, JRW-0042, JRW-0138, and JRW-0147, to inhibit Nluc luciferase activity versus firefly luciferase activity, e.g., ULTRAGLO® luciferase. In a Corning 3570 assay plate, a solution containing 1 μM luciferin in Luciferase Detection Reagent (Promega Corporation V865/859) was added to the assay wells. An equal volume of titrations the thienopyrrole compounds, JRW-0004, JRW-0013, JRW-0006, JRW-0042, JRW-0138, and JRW-0147 were then added to the wells. The reactions were incubated at RT for 2 hrs, and luminescence was measured on Tecan M1000 Pro plate reader.

The next experiment has as its target Nluc (Oplophorus gracilirostris, UniProt Q9GV45, A31E/A60N/A81I/F95D/I117V/K70R/L54V/L99Q/M102K/N193R/P142E/Q151K/Q38R/Q45L/V71I/Y165I). Put plainly: Multiplex RealTime-Glo / Caspase-Glo 3/7 in MCF7 cells. The class given is cell-based. The arrangement: purchased Promega Corporation. How it is done: as §1, §2
The next experiment concerns the target T2, purified Nluc enzyme (Oplophorus gracilirostris, UniProt Q9GV45, A31E/A60N/A81I/F95D/I117V/K70R/L54V/L99Q/M102K/N193R/P142E/Q151K/Q38R/Q45L/V71I/Y165I).
T2 construct: purchased Promega Corporation
It counts as biochemical. The conditions noted are these: titration up to 100 μM final; RT 2 hrs; pro-substrate PBI-4442 + DTT. How it is done: In a Corning 3570 assay plate, purified Nluc enzyme (Promega Corporation), 20 mM DTT, and an Nluc pro-substrate (PBI-4442, which is described in US Patent Publication No. 2013/0130289), which is converted to an Nluc substrate upon reduction with DTT, was added. Compound titrations of JRW-0004, JRW-0013, JRW-0006, JRW-0042, JRW-0138, and JRW-0147 were then made (1:2 serial dilution in PBS, 11 points plus no inhibitor control, starting at 200 μM; 100 μM final concentration in reaction). Compound titrations were added in equal volume to the wells of the assay plate. The reactions were incubated at RT for 2 hrs, and luminescence was measured on Tecan M1000 Pro plate reader. Half-maximal inhibitor (thienopyrrole compound) concentrations (IC50s) were determined using GraphPad Prism 6.03.

For another experiment, the target named is NANOLUC® enzyme (Oplophorus gracilirostris, UniProt Q9GV45, A31E/A60N/A81I/F95D/I117V/K70R/L54V/L99Q/M102K/N193R/P142E/Q151K/Q38R/Q45L/V71I/Y165I). The experiment in a line: Inhibitor IC50 determination (NANOLUC enzyme, furimazine). It counts as biochemical. To be noted: IC50 (uM), 0.4 ng/ml NANOLUC enzyme, final furimazine 10 uM (at Km).
Setting [3] is: 10 μM Stauro vs Control, 200 μM compound.
Where [4] appears, read: CASPASE-GLO 3/7 reagent with 200 μM compound, 1 hr 10 min.

“Also recorded” adds a separate entry of the source.

Nluc, sequence (Q9GV45 28-196 with tags or gaps with the stated changes limits assumed): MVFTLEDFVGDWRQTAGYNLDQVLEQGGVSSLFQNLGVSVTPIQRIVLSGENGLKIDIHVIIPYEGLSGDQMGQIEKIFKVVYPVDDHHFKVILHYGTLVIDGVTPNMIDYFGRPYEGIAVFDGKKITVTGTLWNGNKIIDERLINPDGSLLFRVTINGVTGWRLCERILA
Nluc luciferase, sequence (Q9GV45 28-196 with tags or gaps with the stated changes limits assumed): as above
T2 sequence (Q9GV45 28-196 with tags or gaps with the stated changes limits assumed): as above
T1 sequence (Q9GV45 28-196 with tags or gaps with the stated changes limits assumed): as above
NANOLUC® enzyme, sequence (Q9GV45 28-196 with tags or gaps with the stated changes limits assumed): as above

With `CCN(C(=O)Cn1c(C(=O)OC)cc2sccc21)c1cccc(C)c1` [JRW-0004, methyl 4-(2-(ethyl(m-tolyl)amino)-2-oxoethyl)-4H-thieno[3,2-b]pyrrole-5-carboxylate], the “Inhibition of Nluc enzyme in RealTime-Glo reagent (FIG. 1)” value in experiment [1] is “can inhibit the Nluc enzyme”. Further, the “Fold Cont, Media only” value with Nluc enzyme (setting [3]) is on record as 5.89. Moreover, in the experiment on Nluc enzyme (setting [4]), the “Avg (luminescence), Media only, 10 μM Stauro” value was found to be 54589 and the “Avg (luminescence), Media only, Control” value is recorded as 9261. In addition, on Nluc luciferase, the “Inhibition of Nluc luciferase, dose and time dependence (FIGS. 4-6)” value is “inhibit Nluc luciferase in a dose- and time-dependent manner”. Further, the “Inhibition of firefly luciferase activity (FIG. 3)” value in experiment [2] is on record as “do not inhibit firefly luciferase activity; also recorded: did not inhibit the firefly luciferase activity”. Besides, the “Fold Cont, Media containing RealTime-Glo” value at Nluc (setting [3]) was determined as 5.53. In addition, on Nluc (setting [4]), the “Avg (luminescence), Media containing RealTime-Glo, 10 μM Stauro” value is 50266 and the “Avg (luminescence), Media containing RealTime-Glo, Control” value was found to be 9090. The “Inhibition of purified Nluc enzyme (FIG. 2)” value at purified Nluc enzyme is recorded as “capable of inhibiting purified Nluc enzyme”. Further, the IC50 (in general, the concentration that gives 50% inhibition) against NANOLUC® enzyme was found to be 1.1 µM.
